Values joined by “and” are separate entries in the source; they are usually repeats but may differ in a detail not shown here. Identical values can stand only once. Inconclusive results and toxic doses are left out. No stated cut-off is given here; in the data, active means T/C of 150% or more; inactive means T/C below 125%.
Test system: L1210 leukemia ip in BDF1 mice, survival T/C
Experiment: NCI In Vivo Anticancer Drug Screen. Data for tumor model L1210 Leukemia (intraperitoneal) in B6D2F1 (BDF1) mice
Conditions: endpoint: mean survival time, higher = longer survival
Method in brief: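 Value reflects the ratio of survival in compound-treated mice to survival in vehicle-treated controls, with both groups carrying the same transplanted tumor.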

[1] = dose: 100.0 mg/kg/injection, schedule: Q01DX009 (ip), vehicle: Klucel (hydroxypropylcellulose) (HPC)
[2] = dose: 100.0 mg/kg/injection, schedule: Q04DX002 (ip), vehicle: Klucel (hydroxypropylcellulose) (HPC)
[3] = dose: 200.0 mg/kg/injection, schedule: Q04DX002 (ip), vehicle: Klucel (hydroxypropylcellulose) (HPC)
[4] = dose: 400.0 mg/kg/injection, schedule: Q04DX002 (ip), vehicle: Klucel (hydroxypropylcellulose) (HPC)
[5] = dose: 50.0 mg/kg/injection, schedule: Q01DX001 (ip), vehicle: saline
[6] = dose: 100.0 mg/kg/injection, schedule: Q01DX001 (ip), vehicle: saline
[7] = dose: 200.0 mg/kg/injection, schedule: Q01DX001 (ip), vehicle: saline
[8] = dose: 400.0 mg/kg/injection, schedule: Q01DX001 (ip), vehicle: saline
[9] = dose: 100.0 mg/kg/injection, schedule: Q04DX003 (ip), vehicle: gum acacia
[10] = dose: 200.0 mg/kg/injection, schedule: Q04DX003 (ip), vehicle: gum acacia
[11] = dose: 100.0 mg/kg/injection, schedule: Q01DX009 (ip), vehicle: saline with Tween-80
[12] = dose: 100.0 mg/kg/injection, schedule: Q04DX003 (ip), vehicle: saline with Tween-80
[13] = dose: 200.0 mg/kg/injection, schedule: Q01DX009 (ip), vehicle: saline with Tween-80
[14] = dose: 200.0 mg/kg/injection, schedule: Q04DX003 (ip), vehicle: saline with Tween-80
[15] = dose: 400.0 mg/kg/injection, schedule: Q01DX009 (ip), vehicle: saline with Tween-80
[16] = dose: 400.0 mg/kg/injection, schedule: Q04DX003 (ip), vehicle: saline with Tween-80

Measured: T/C

Cn1ccnc1CC(C)(O)c1ccccc1 (stereo not drawn)
inactive: dose: 100.0 mg/kg/injection, schedule: Q01DX001 (ip), vehicle: Klucel (hydroxypropylcellulose) (HPC) 92 % of control | [1] 97 % of control and 98 % of control | [2] 96 % of control | dose: 200.0 mg/kg/injection, schedule: Q01DX001 (ip), vehicle: Klucel (hydroxypropylcellulose) (HPC) 97 % of control | dose: 200.0 mg/kg/injection, schedule: Q01DX009 (ip), vehicle: Klucel (hydroxypropylcellulose) (HPC) 108 % of control and 88 % of control | [3] 108 % of control | dose: 400.0 mg/kg/injection, schedule: Q01DX009 (ip), vehicle: Klucel (hydroxypropylcellulose) (HPC) 102 % of control | [4] 103 % of control

OC(C/C=C/c1ccccc1)c1ccccc1 (stereo not drawn)
inactive: dose: 50.0 mg/kg/injection, schedule: Q01DX009 (ip), vehicle: Klucel (hydroxypropylcellulose) (HPC) 91 % of control | [1] 97 % of control

OCC(F)(F)F
inactive: [5] 98 % of control | [6] 110 % of control | [7] 102 % of control | [8] 108 % of control

COC(=O)c1cccc(Cl)c1-c1c(Cl)cccc1C(=O)OC
inactive: [2] 96 % of control | [3] 108 % of control | [4] 92 % of control

CCCCCCCCCCCCC(=O)N1CCCC1
inactive: dose: 100.0 mg/kg/injection, schedule: Q04DX002 (ip), vehicle: saline 104 % of control | dose: 200.0 mg/kg/injection, schedule: Q04DX002 (ip), vehicle: saline 104 % of control | dose: 400.0 mg/kg/injection, schedule: Q04DX002 (ip), vehicle: saline 96 % of control

COc1ccc(CN2CCCN(Cc3ccc(OC)cc3OC)C2c2ccc(N(CCCl)CCCl)cc2)c(OC)c1
inactive: dose: 50.0 mg/kg/injection, schedule: Q01DX001 (ip), vehicle: carboxymethylcellulose (CMC) 106 % of control | dose: 100.0 mg/kg/injection, schedule: Q01DX001 (ip), vehicle: carboxymethylcellulose (CMC) 101 % of control | dose: 200.0 mg/kg/injection, schedule: Q01DX001 (ip), vehicle: carboxymethylcellulose (CMC) 115 % of control | dose: 400.0 mg/kg/injection, schedule: Q01DX001 (ip), vehicle: carboxymethylcellulose (CMC) 106 % of control

CC(C)(C)c1ccc2oc(-c3ccc(-c4nc5cc(C(C)(C)C)ccc5o4)s3)nc2c1
inactive: [9] 92 % of control | [10] 99 % of control

Cc1coc(NS(=O)(=O)c2ccc(N=Nc3c(N)[nH]c(=O)[nH]c3=O)cc2)c1C
inactive: [6] 103 % of control | [7] 96 % of control | [8] 104 % of control

CCCCCCCCCCCCCCCCCC(=O)OCCOC(=O)CCCCCCCCCCCCCCCCC
inactive: dose: 75.0 mg/kg/injection, schedule: Q01DX009 (ip), vehicle: other 103 % of control | dose: 100.0 mg/kg/injection, schedule: Q04DX002 (ip), vehicle: other 88 % of control | dose: 150.0 mg/kg/injection, schedule: Q01DX009 (ip), vehicle: other 96 % of control | dose: 200.0 mg/kg/injection, schedule: Q04DX002 (ip), vehicle: other 98 % of control | dose: 300.0 mg/kg/injection, schedule: Q01DX009 (ip), vehicle: other 111 % of control

Cc1ccc(N=Nc2ccc(C)cc2NC(=O)c2ccc(Cl)cc2)cc1
inactive: dose: 50.0 mg/kg/injection, schedule: Q01DX001 (ip), vehicle: saline with Tween-80 100 % of control | dose: 50.0 mg/kg/injection, schedule: Q04DX003 (ip), vehicle: saline with Tween-80 90 % of control | dose: 100.0 mg/kg/injection, schedule: Q01DX001 (ip), vehicle: saline with Tween-80 90 % of control | [11] 93 % of control and 94 % of control | dose: 100.0 mg/kg/injection, schedule: Q04DX002 (ip), vehicle: saline with Tween-80 94 % of control and 90 % of control | [12] 93 % of control | [13] 95 % of control and 97 % of control | dose: 200.0 mg/kg/injection, schedule: Q04DX002 (ip), vehicle: saline with Tween-80 93 % of control and 91 % of control | [14] 93 % of control | [15] 90 % of control and 92 % of control | dose: 400.0 mg/kg/injection, schedule: Q04DX002 (ip), vehicle: saline with Tween-80 87 % of control and 89 % of control | [16] 89 % of control and 90 % of control

CCCCCSC(=O)C(N)=O
inactive: [11] 102 % of control | [12] 100 % of control | [13] 100 % of control | [14] 109 % of control | [15] 96 % of control | [16] 92 % of control

C(=N\N(CCCCN(/N=C/c1ccccc1)c1ccccc1)c1ccccc1)/c1ccccc1
inactive: dose: 12.5 mg/kg/injection, schedule: Q01DX009 (ip), vehicle: gum acacia 111 % of control | dose: 25.0 mg/kg/injection, schedule: Q01DX009 (ip), vehicle: gum acacia 96 % of control | [5] 96 % of control | dose: 50.0 mg/kg/injection, schedule: Q01DX009 (ip), vehicle: gum acacia 92 % of control | [6] 104 % of control | [9] 94 % of control | [7] 91 % of control | dose: 200.0 mg/kg/injection, schedule: Q01DX009 (ip), vehicle: gum acacia 87 % of control | [10] 89 % of control | [8] 98 % of control | dose: 400.0 mg/kg/injection, schedule: Q01DX009 (ip), vehicle: gum acacia 86 % of control | dose: 400.0 mg/kg/injection, schedule: Q04DX003 (ip), vehicle: gum acacia 91 % of control

CCOC(=O)c1c(O)[nH]c(=O)c(Br)c1C
inactive: [6] 109 % of control | dose: 100.0 mg/kg/injection, schedule: Q04DX003 (ip), vehicle: saline 89 % of control | [7] 120 % of control | dose: 200.0 mg/kg/injection, schedule: Q04DX003 (ip), vehicle: saline 89 % of control | [8] 117 % of control | dose: 400.0 mg/kg/injection, schedule: Q04DX003 (ip), vehicle: saline 90 % of control

CN(C)CCC(c1ccccc1)c1nc(N)nc(C(CCN(C)C)c2ccccc2)n1 (stereo not drawn)
inactive: dose: 50.0 mg/kg/injection, schedule: Q04DX002 (ip), vehicle: Klucel (hydroxypropylcellulose) (HPC) 102 % of control | [1] 115 % of control | [2] 105 % of control

Reference: PubChem BioAssay AID248 (DTP/NCI, 2004)
